Results on 36 molecules are retold here after ChEMBL document CHEMBL5303711, “ECBD screening data for assay EOS300108” (2023).

A short description of the series: Cytotoxicity activity against human HepG2 cells assessed by CellTiter-Glo luminescent cell viability assay. Type of series: toxicity, cell-based. Set-up: assay stage confirmatory assay, source tissue liver. The following applies: HepG2 cells, read-out: IC50 relative. For orientation: In ATP-based viability assays light output follows the ATP content of the culture.

The source made the active and inactive calls. How the calls were made is not given here.

As to `CN(Cc1ccccc1)C1=CC(=[N+]2CCCC2)CC(C)(C)C1`, the CC50 is 3.3 µM (active).
As to `Cc1noc(C)c1CC(=O)Nc1nc(-c2ccc(S(=O)(=O)N(C)C)cc2)cs1`, the CC50 is 4.3 µM (active).
In the case of `COCCn1cc(C(=O)Nc2nc3ccccc3[nH]2)c2ccccc21` it was 11.7 µM (inactive); in that of `COc1ccc(-n2ccc(C(=O)Nc3cnccc3C(N)=O)n2)cc1`, 5.4 µM (active).
To `O[C@H]1C[C@@H](c2cc(N3CCC(Oc4ccccc4Cl)CC3)ncn2)C1` belongs 5.6 µM (active).
To `CCOc1cccc(N2CCN(c3ncnc4c(F)cccc34)CC2)n1` belongs 8.3 µM (active); to `CCc1ccc([N+]2=C3SCCCN3C[C@]2(O)c2ccc(OC)c(OC)c2)cc1`, 10.9 µM (active).
Turning to `c1ccc(-c2nc3n(n2)Cc2ccccc2-3)cc1`, the CC50 is 2.7 µM (active).
To `Cc1occc1C(=O)NC1CCN(CCC(=O)c2ccccc2)CC1` belongs 9.5 µM (active); to `Cc1ccnn1-c1ccc(C(=O)Nc2cc(N(C)C)ccn2)cc1`, 12.1 µM (active); to `O=C(c1c[nH]c(-c2ccccn2)c1)c1ccccc1O`, 12.6 µM (inactive).
On to `Cc1cc(C)n(-c2ccc(C(=O)Nc3ncccc3O)cc2)n1`, for which the CC50 is 8.8 µM (active).
In the case of `CC(C)(C)NC(=O)NC(=O)CNc1ccccc1C(=O)Nc1ccc(F)cc1` it was 50 µM (inactive); in that of `CCc1nccn1[C@H]1CCCN(CCOc2ccccc2F)C1`, 9.3 µM (active); in that of `O=C1CN2C(=C1c1nc3ccccc3s1)NC(=O)c1sccc12`, 3.7 µM (active).
In the case of `Cc1cc([C@H]2CCCN(CC(=O)Nc3nccs3)C2)n[nH]1` it was 6.6 µM (inactive); in that of `C[C@H](O)CN1CCC(CNCc2cccc(Br)c2)CC1`, 9.4 µM (active).
For `O=C(c1cccc(S(=O)(=O)N2CCOCC2)c1)N1CCN(c2nc3ccccc3s2)CC1`, the CC50 is 5 µM (active).
To `O=C(Nc1ccc(-c2cn3ccsc3n2)cc1)c1cccc(CO)c1` belongs 6.3 µM (active).
To `CC(C)(CN)c1cccc(-c2cccc(CN)c2)c1` belongs 12.3 µM (active); to `CCc1cc(N2CCC(NC(=O)N3CCN(c4cccnn4)CC3)CC2)ncn1`, 16.3 µM (inactive); to `Nc1ccc2cc3ccc(N)cc3nc2c1`, 3.2 µM (active).
As for `CON(C)C(=O)CSc1nc2sc(C)c(C)c2c(=O)n1Cc1ccccn1`, the CC50 was 0.6 µM (active).
To `CN(C)c1cc(CNCc2cccc(OCc3ccccn3)c2)ccn1` belongs 15.3 µM (inactive); to `COc1ccc(CNc2nccn(-c3ccc4c(c3)OCO4)c2=O)cc1OC`, 9.1 µM (inactive); to `CN(C(=O)Cn1c(S(C)(=O)=O)nc2ccccc21)c1ccccc1`, 5.1 µM (inactive).
In the case of `O=C(Nc1ccnc2ccnn12)c1ccc2ccccc2n1` it was 1.4 µM (active); in that of `Cc1cc(C(=O)Nc2cc(Cl)ccc2N2CCN(C)CC2)no1`, 11.9 µM (active).
Regarding `CCN1CCCCC1CNCc1ccc2cc(O)ccc2c1` (stereo unspecified), the CC50 is 11.5 µM (active).
For `OCC1CCCN(CCNCc2ccc(Cl)c(Cl)c2)C1` (stereo unspecified), the CC50 was 5.7 µM (active).
To `Cc1cc(NC(=O)c2cnn(-c3ccccc3)n2)cc(N2CCN(C)CC2)c1` belongs 6.1 µM (active); to `CCn1c(NC(=O)c2ccc(=O)n(CCOc3ccccc3)n2)nc2ccccc21`, 4.6 µM (active).
In the case of `O=C(Nc1nc2cc(C(F)(F)F)ccc2[nH]1)C1=COCCO1` it was 7.1 µM (active).
In the case of `CCc1nccn1[C@H]1CCCN(CCOc2ccc(F)cc2)C1` it was 6 µM (active); in that of `Cc1c(C(=O)Nc2ncccc2O)oc2ccccc12`, 1.7 µM (active); in that of `Cc1cc(N2CCC[C@H](c3c[nH]c4ncccc34)C2)n2ncnc2n1`, 8.5 µM (active).
